# pEC50: −log10 of the molar value. Active and inactive are the calls of the source.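 The calls were made as follows: active = EC50 at or below 33 microM; inactive = the rest.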
# Molecular target: Ammonium transporter MEP2 (Saccharomyces cerevisiae (strain ATCC 204508 / S288c)) (UniProt P41948)
# Assay: MEP2-GFP expression modulation in yeast, dose response, flow cytometry, KU SAR set, S. cerevisiae (AID 488801)
# Settings: flow cytometry MCF, 3 h
# Chain of Ammonium transporter MEP2 (Saccharomyces cerevisiae (strain ATCC 204508 / S288c)) (P41948 whole entry, looked up): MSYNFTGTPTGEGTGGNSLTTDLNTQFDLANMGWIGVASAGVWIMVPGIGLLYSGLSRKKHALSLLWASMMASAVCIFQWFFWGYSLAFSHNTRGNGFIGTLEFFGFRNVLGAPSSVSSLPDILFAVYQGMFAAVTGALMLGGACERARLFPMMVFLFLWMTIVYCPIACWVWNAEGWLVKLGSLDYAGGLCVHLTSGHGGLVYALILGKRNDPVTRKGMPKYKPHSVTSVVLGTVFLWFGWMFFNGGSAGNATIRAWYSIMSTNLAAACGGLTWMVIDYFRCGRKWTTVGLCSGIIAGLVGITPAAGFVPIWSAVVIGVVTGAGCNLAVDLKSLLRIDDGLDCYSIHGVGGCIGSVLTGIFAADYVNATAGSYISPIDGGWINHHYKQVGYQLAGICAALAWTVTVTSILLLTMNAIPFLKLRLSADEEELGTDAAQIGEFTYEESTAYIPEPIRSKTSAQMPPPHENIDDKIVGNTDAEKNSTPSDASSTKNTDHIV
SMILES,EC50,pEC50
CNc1nc(N)c([N+](=O)[O-])c(NCC2CCCO2)n1 (stereo unspecified),inactive,–
CNc1nc(N)c([N+](=O)[O-])c(Nc2cccc(Cl)c2)n1,–,5.57
Cc1ccc(S(=O)(=O)c2ncccc2[N+](=O)[O-])cc1,inactive,–
CSC1=NS(=O)(=O)c2c(C)nn(C)c2S1,inactive,–
O=C(Oc1ccnc2cc(Cl)ccc12)N1CCCCCC1,–,5.40
CN1CCN(C(c2ccc(C(F)(F)F)cc2)c2ccc3cccnc3c2O)CC1 (stereo unspecified),inactive,–
CNc1nc(N)c([N+](=O)[O-])c(Nc2cccc(F)c2)n1,–,4.80
COc1ccc([N+](=O)[O-])c(S(=O)(=O)c2ccccc2)n1,inactive,–
Cc1ccc(C(c2cc(Cl)c3cccnc3c2O)N2CCN(C)CC2)cc1 (stereo unspecified),inactive,–
CCN(CC)C(=O)Oc1ccnc2cc(Cl)ccc12,inactive,–

# Second part, the compound after the results:
EC50,pEC50,SMILES
inactive,–,O=C(Oc1c(Cl)cc(Cl)c2cccnc12)c1ccco1
inactive,–,Cc1cc(C(=O)Nc2nc(-c3ccccn3)cs2)ccc1[N+](=O)[O-]
inactive,–,O=C(Oc1c(Cl)cc(Cl)c2cccnc12)c1cccc([N+](=O)[O-])c1
inactive,–,O=C(Nc1nc(-c2ccccn2)cs1)C1COc2ccccc2O1 (stereo unspecified)
inactive,–,Nc1cc(Oc2cccc(Cl)c2)nc(NCc2ccccc2)n1
inactive,–,C/C(=N\NC(=O)c1cccc(Br)c1)c1ccccn1
inactive,–,Nc1cc(Nc2cccc(F)c2)nc(NCc2ccccc2)n1
inactive,–,Cc1ccc(/C=C2/C(=O)ON=C2c2ccccc2)o1
inactive,–,O=C(OCC(=O)N1CCN(C(=O)c2ccco2)CC1)c1cc(-c2cccc(Br)c2)nc2ccccc12
inactive,–,C/C(=N\NC(=O)c1ccc(C(C)(C)C)cc1)c1ccccn1
inactive,–,O=C(Nc1nc(-c2ccccn2)cs1)c1cc2ccccc2o1
